Laboratory results from patent US20110223256A1, “Method For Stabilizing Flavonoid Aqueous Dispersion” (STOKELY-VAN CAMP, INC., priority 2010, published 2011).

Test: Shelf life of aqueous dispersion in 20 oz beverage
Format: physicochemical
Settings: aqueous dispersion in 20 oz beverage, 22-25° C.; stable = no settling, phase separation or precipitates
Description: As set forth in the examples below, stable aqueous dispersions containing bioactive compounds were prepared by using the solubilization and stabilization process. The resulting dispersions were fine, homogeneous, and stable. There were no settling, phase separation, and precipitates on the side of the bottle (See FIG. 3 and Table 1).
With `O=C1C[C@@H](c2ccc(O)cc2)Oc2cc(O)cc(O)c21` [Naringenin] the “Shelf Life (22-25° C.)” value was “Stable after at least 3 months”.
For `O=c1c(O)c(-c2ccc(O)c(O)c2)oc2cc(O)cc(O)c12` [Quercetin, 2-(3,4-dihydroxyphenyl)-3,5,7-trihydroxy-4H-chromen-4-one], the “Shelf Life (22-25° C.)” value was “Stable after at least 6 months”.
In the case of `COc1ccc([C@@H]2CC(=O)c3c(O)cc(O[C@@H]4O[C@H](CO[C@@H]5O[C@@H](C)[C@H](O)[C@@H](O)[C@H]5O)[C@@H](O)[C@H](O)[C@H]4O)cc3O2)cc1O` [Hesperedin], the “Shelf Life (22-25° C.)” value is reported as “Stable after at least 3 months”.
In the case of `C[C@@H]1CC[C@H]2[C@@H](C)C(=O)O[C@@H]3O[C@@]4(C)CC[C@@H]1[C@]32OO4` [Artemisinin, reference compound], the “Shelf Life (22-25° C.)” value is reported as “Stable after at least 3 months”.
With `COc1cc(/C=C/C(=O)CC(=O)/C=C/c2ccc(O)c(OC)c2)ccc1O` [Curcumin] the “Shelf Life (22-25° C.)” value was “Stable after at least 3 months”.
With `Oc1ccc(C=Cc2cc(O)cc(O)c2)cc1` [Resveratrol] the “Shelf Life (22-25° C.)” value was “Stable after at least 3 months”.
For `COc1ccc2oc(-c3ccc(OC)c(OC)c3)c(OC)c(=O)c2c1` [Tetramethoxyflavone, 3,6,3′,4′-Tetramethoxyflavone], the “Shelf Life (22-25° C.)” value was “Stable after at least 3 months”.

Same assay, conditions: depending on the dispersion stabilizer(s) used
For `O=c1c(O)c(-c2ccc(O)c(O)c2)oc2cc(O)cc(O)c12` [Quercetin, 2-(3,4-dihydroxyphenyl)-3,5,7-trihydroxy-4H-chromen-4-one], the “Length of time quercetin stays dispersed in a beverage” value was “about 12 hours to about six months or longer”.
